In patent publication US9265189B2, “Method for reducing damage by harmful organisms in corn cultivation” (SUMITOMO CHEMICAL COMPANY, LIMITED, priority 2012, dated 2016):

What was measured:
Type in all cases: in vivo
Agriotes spp. = test: Field test, corn plants damaged by Agriotes spp. after in-furrow spray (Example 1); conditions: Example section 1: clothianidin 50 g/ha, in-furrow spray of Dantop 50WG aqueous suspension 100 L/ha, corn DK 440, 35 days after application; non-treatment section 43
Experimental: Using a pneumatic seeder (disk furrow opener, manufactured by Gaspardo) equipped with a power sprayer (trade name: WJR 2525, manufactured by HONDA), a cultivated land was ditched at intervals of 75 cm to a depth of 3 cm from the soil surface, and the furrow was seeded with corn (Zea Mays, trade name: DK 440; hybrid variety, manufactured by Monsanto) at intervals of 13 cm. A seeding density of corn was 100000 seeds/ha. Then, the furrow was spray-treated with an aqueous suspension of a clothianidin water dispersible granule (using a 50% dispersible granule, trade name: Dantop 50WG, manufactured by Philagro) at 100 L/ha so that the application amount of clothianidin was 50 g/ha, and then a soil on the side of the furrow was gathered together to close the furrow. This was defined as an example section 1. For comparison, a non-treatment section, which was seeded with corn without application of a clothianidin water dispersible granule, was provided. […] 35 days after application of the clothianidin water dispersible granule, the number of plants of corn damaged by Agriotes spp. in each of the example section 1 and the non-treatment section was investigated, a damage plant rate was calculated in accordance with the following equation, and then an average damage plants rate of the four investigation sections was determined. […]

Agriotes sordidus = test: Field test, corn plants damaged by Agriotes sordidus after in-furrow spray (Example 3); conditions: Example section 3: clothianidin 25 g/ha, in-furrow spray of Dantop 50WG aqueous suspension 100 L/ha, corn KUBRIK, 34 days after application; non-treatment section 34.6
Experimental: A cultivated land was ditched at intervals of 75 cm to a depth of 3 cm from the soil surface, and the furrow was seeded with corn (Zea Mays, variety name: KUBRIK; hybrid variety) at intervals of 17 cm. A seeding density of corn was 78000 seeds/ha. Then, the furrow was spray-treated with an aqueous suspension of a clothianidin water dispersible granule (using a 50% water dispersible granule, trade name: Dantop 50WG, manufactured by Philagro) at 100 L/ha so that the application amount of clothianidin was 25 g/ha, and then a soil on the side of the furrow was gathered together to close the furrow. This was defined as an example section 3. For comparison, a non-treatment section, which was seeded with corn without application of a clothianidin water dispersible granule, was provided. In any section, four places were arranged by a randomized block method, with one place having an area of 54 m^2 (18 m×3 m). 34 days after application of the clothianidin water dispersible granule, the number of plants of corn damaged by Agriotes sordidus in each of the example section 3 and the non-treatment section was investigated, a damage plant rate was calculated in accordance with the following equation, and then an average damage plants rate of the four investigation sections was determined. Damage plant rate(%)=[(number of plants of corn damaged)/(number of plants of corn seeded)]×100

[1] = test system: Diabrotica virgifera virgifera and Agriotes lineatus; test: Field test, lodge rate, clothianidin in-furrow, seed treated with thiuram and cyprosulfamide (Example 9); conditions: clothianidin 50 g/ha in-furrow spray 125 L/ha, 165 days after application, example in present tense
Text: A chemical fertilizer (N:P:K=15:15:15) is applied to the soil surface of a cultivated land at 300 kg/ha, and the cultivated land is then plowed. 7 days after fertilization, for suppressing generation of weeds, the soil surface of the whole cultivated land is spray-treated with a mixed liquid containing thiencarbazone-methyl and isoxaflutole, each of which being a herbicide, at 150 L/ha so that the application amounts of thiencarbazone-methyl and isoxaflutole are 9.2 g/ha and 23 g/ha. 21 days after fertilization, using a pneumatic seeder (disk furrow opener) equipped with a power sprayer, a cultivated land is ditched at intervals of 75 cm to a depth of 5 cm from the soil surface, and the furrow is seeded with corn (Zea Mays; hybrid variety). The furrow is seeded at intervals of 20 cm using, as a seed of corn, one treated with thiuram and cyprosulfamide. A seeding density of corn is 70000 seeds/ha. […] 165 days after application of the aqueous suspension of clothianidin, the number of plants of corn lodged due to damage by Diabrotica virgifera virgifera and Agriotes lineatus in the furrows of the treatment section and the non-treatment section, for which the number of plants of corn germinated is investigated, is investigated, a lodge rate is calculated in accordance with the following equation, and then an average lodge rate for the four investigation sections is determined.

SMILES: CN/C(=N\[N+](=O)[O-])NCc1cnc(Cl)s1 [clothianidin]
- Damage plant rate (%) (Agriotes spp.): 0%
- Damage plant rate (%) (Agriotes sordidus): 1.8%
- Lodge rate compared to non-treatment section [1]: low lodge rate as compared to the non-treatment section
